Patent US20210106649A1, “SYNERGISTIC COMBINATION OF CHEMOTHERAPY AND PEPTIDE FOR TREATING CANCER” (TOBEBIO Novel Drug Laboratory Co., Ltd., priority 2019, published 2021)
Ends that are not written are not given here.

Tested on: AsPC-1 pancreatic cancer cells
Experiment: Survival analysis of AsPC-1 pancreatic cancer orthotopic mice model
Format: in vivo, athymic nude mice
Settings: alloferon-1 2.5 mg/kg daily s.c.; paclitaxel 8 mg/kg weekly i.p.; orthotopic AsPC-1 nude mice
Description: AsPC-1, human pancreas adenocarcinoma cell line, was purchased from American Type Culture Collection (ATCC) and maintained in a complete Eagle's minimal essential medium (MEM) medium supplemented with 10% fetal bovine serum (FBS) (Hyclone), non-essential amino acid, sodium pyruvate, penicillin-streptomycin and vitamin solution (Life Technologies). AsPC-1 cells were incubated at 37° C. in a mixture atmosphere of 5% CO2 and 95% […]. Cell lines were authenticated via short tandem repeat (STR) profiling (Cosmogenetech).
The number of survival days for all animals was recorded and statistical analysis was performed using the GraphPad Prism 8. Kaplan-Meier survival plots were analyzed with the Log-rank (Mantel-Cox) test to compare survival rates between groups. A probability (P) value of <0.05 or lower was considered statistically significant.

Compound | Median survival
CC(=O)O[C@H]1C(=O)[C@@]2(C)[C@H]([C@H](OC(=O)c3ccccc3)[C@]3(O)C[C@H](OC(=O)[C@H](O)[C@@H](NC(=O)c4ccccc4)c4ccccc4)C(C)=C1C3(C)C)[C@]1(OC(C)=O)CO[C@@H]1C[C@@H]2O [Paclitaxel, paclitaxel] | 107 days
HGVSGHGQHGVHG [Alloferon-1] | 91 days
